Measurements published in PMC7785802, “Therapeutic Efficacy of a Trichinella Spiralis Paramyosin-Derived Peptide Modified With a Membrane-Targeting Signal in Mice With Antigen-Induced Arthritis” (Frontiers in Microbiology, 2020).
Entries after “also recorded” stand apart in the source; their conditions may differ.

Assays:
mouse ATDC5 cells = experiment: Peptide binding to cell surface, flow cytometry; type: cell-based; conditions: 1 h room temperature, streptavidin-FITC; for binding to cell membrane of ATDC5 cells (flow cytometry) at 260 nmol: biotin-labeled peptide
Excerpt: The mouse ATDC5 chondrogenic cell line is an important chondrocyte model that has been widely used in the study of chondrocyte proliferation and differentiation. This cell line was used to evaluate the membrane-binding ability of the modified peptide, as articular cartilage (which contains chondrocytes) is one of the main cellular components in the joint cavity. The cells were purchased from Guangzhou Jennio Biotech Co., Ltd. (Guangzhou, China) and maintained in Dulbecco's Modified Eagle Medium (DMEM, ThermoFisher, America) supplemented with 10% fetal bovine serum (FBS, Gibco, Australia) at 37°C in a humidified atmosphere with 5% CO2. The 5th−10th passages of the cells were used in the study.
To assess the binding ability of the modified peptide to the cell membrane, the three peptides were labeled with biotin at the C-terminus. Cultured mouse ATDC5 cells were washed with phosphate-buffered saline (PBS) and incubated with various concentrations of the control, original or modified peptides (65, 130, and 260 nmol, respectively) for 1 h at room temperature. After washing twice with PBS to remove the unbound peptides, streptavidin-fluorescein isothiocyanate (FITC; eBioscience, California, USA) was added and incubated for 0.5 h at room temperature. The cells were washed and resuspended in PBS and then the binding of the peptides to the cell membrane was assessed by flow cytometry (BD Biosciences, California, USA). To further assess the retention of peptides on the surface of cells, the mouse ATDC5 cells were cultured in a 12-well culture plate which contains cell slides on the bottom. They were washed with PBS on the next day and then blocked with normal goat serum for 30 min at room temperature before incubation with various concentrations of peptides (260 nmol, 540 nmol, and 1.08 mmol). The binding of the peptides to the cell membrane was then assessed by staining with streptavidin-FITC (eBioscience). After being stained, the cells that had adhered to the cell slides were mounted using ProLong Gold Antifade reagent (ZSGB-BIO, Beijing, china) containing 4′,6-diamidino-2-phenylindole (DAPI, ThermoFisher, America) dye to stain the cell nuclei. They were then analyzed by confocal laser scanning microscopy (Leica, Germany).
Figure 3 Modified peptide non-specifically bound to the cell surface. (A) Binding of peptides to the surface of mouse ATDC5 cells measured by flow cytometry. All experiments were performed three times and data are presented as mean ± SD. n = 5, ***p < 0.001, ns: not significant (p > 0.05). (B) Binding of various concentrations of biotin-labeled peptides on the surface of mouse ATDC5 cells assessed by confocal laser scanning microscopy. Arrowheads indicate the binding of the modified peptides on the surface of mouse ATDC5 cells.

[1] = tested on: complement in normal human serum (NHS); rabbit erythrocytes; experiment: NHS-induced complement-mediated hemolysis of rabbit erythrocytes (alternative pathway); type: cell-based; conditions: for inhibition of NHS-induced erythrocyte lysis, concentration dependence: NHS 1:12.5, peptide 1.31, 2.62, 5.24 μmol, Mg-EGTA, 37°C 40 min, then rabbit erythrocytes 1 × 10^8, 30 min 37°C, absorbance 412 nm; for inhibition of NHS-induced erythrocyte lysis, concentration dependence / inhibition of NHS-induced hemolysis compared to control peptide: three experiments; for inhibition of NHS-induced erythrocyte lysis at 5.24 μmol: peptide 5.24 μmol, NHS 1:12.5; for inhibition of NHS-induced hemolysis compared to control peptide: peptide 2.62 and 5.24 μmol, *p < 0.05, **p < 0.01
Method: Normal human serum (NHS) was collected from six healthy volunteers, and the donation procedure was approved by the Institutional Review Board (IRB) of Capital Medical University (approval number: 2016SY01). After venous blood was collected, it was clotted in serum separator tubes for 4 h at room temperature and then centrifuged at 1,000 g for 30 min to obtain the serum. The serum was divided into aliquots and stored at −80°C. To obtain normal mouse serum (NMS), blood was collected in the […] of mice under ether anesthesia and the serum was separated and stored as described above.
When rabbit erythrocytes are placed in xenogeneic serum (such as NHS or NMS), the alternative pathway of the complement system is activated, causing lysis of the rabbit erythrocytes. To evaluate the effects of the peptides on the complement activation-mediated erythrocyte lysis (involving the alternative complement pathway), NHS or NMS (1:12.5) was incubated with various concentrations of peptides (1.31, 2.62, and 5.24 μmol) in Mg-EGTA solution (5 mM MgCl2, 10 mM EGTA) at 37°C for 40 min before adding the mixture to freshly washed erythrocytes (1 × 10^8) in gelatin veronal-buffered saline (pH 7.4, containing 0.1% gelatin) for 30 min at 37°C. Lysis was stopped with cold Hanks' Balanced Salt Solution (HBSS^++) containing 10 mM ethylenediaminetetraacetic acid (EDTA). The samples were then centrifuged at 1,000 g for 10 min to obtain the supernatant, and the amount of released hemoglobin in the supernatant was determined by measuring the absorbance at 412 nm. The hemolytic activity relative to the water-induced lysis among the same number of erythrocytes was calculated.
(§1) Figure 1 Modified peptide bound to human complement C9 and inhibited C9 polymerization-induced bio-function. (A) Microscale thermophoresis assay (NanoTemper) in which biomolecular interactions were quantitated by examining the motion of the molecules along a microscopic temperature gradient induced by an infrared laser. Changes in the molecular hydration shell, charge, or size are measured using a fluorescent probe (NT-647) bound covalently to the human C9. Binding of control, modified and original peptides to human C9 were studied. Data points indicate the differences in normalized fluorescence (%) generated by peptides binding to […], and curves indicate the calculated fits. […] Error bars represent the standard error of three independent measurements. […] Lane M: standard protein markers; lane 1: blank control (C9 without Zn^2+); lane 2: positive control (C9 with Zn^2+); lane 3: 5.24 μmol original peptide; lanes 4–6, 1.31, 2.62, and 5.24 μmol modified peptide, respectively; lane 7, 5.24 μmol control peptide. (C) Normal human serum (NHS)-induced complement-mediated hemolysis was inhibited by the modified and original peptides (2.62 and 5.24 μmol) compared to the control peptide. All experiments were performed three times and data are presented as mean ± SD. *p < 0.05, **p < 0.01.

human complement C9 = experiment: Microscale thermophoresis (MST) binding to human C9; conditions: for binding to human C9: NT-647-labeled human C9 1.5 μM, peptides diluted from 1.68 to 0 mM, distilled water with 0.05% Tween 20, 10 min room temperature, three independent measurements
Method: To assess the binding affinity of the peptides to human or mouse complement C9, a fluorescence-based biophysical technique known as MST (NanoTemper Technologies GmbH, Germany) was used. Briefly, human or mouse C9 was fluorescently labeled using a Monolith NT™ Protein Labeling Kit NT-647 (NanoTemper Technologies GmbH, Germany) based on the manufacturer's protocol. Next, the peptides were gradiently diluted in distilled water from 1.68 to 0 mM. The labeled human or mouse C9 (1.5 μM) was then incubated with various peptide concentrations for 10 min at room temperature before being loaded into K002 silica capillaries. Measurements were performed using a NanoTemper Monolith NT.115 instrument in distilled water containing 0.05% Tween 20. The data were analyzed using NanoTemper Analysis software (NanoTemper Technologies GmbH, Germany).
as §1

GKMSVMSVYKSVLS [control peptide, reference compound]
binding to cell membrane of ATDC5 cells (flow cytometry) at 260 nmol (mouse ATDC5 cells; 260 nmol): did not bind to the cell membrane | inhibition of NHS-induced erythrocyte lysis, concentration dependence [1]: no difference in the erythrocyte lysis among the three concentrations | binding to human C9 (human complement C9): no binding between human C9 and the control peptide

Myr-GSSKSPSKKKKKKPG-ACP-VSMGKSLSSKVYVM [modified peptide, Ts-pmy-derived peptide modified with a membrane-targeting signal]
ATDC5 cells bound to peptide (mouse ATDC5 cells; C-terminally biotin-labeled peptide, 260 nmol, flow cytometry, n = 5): ~100% | binding to cell surface of ATDC5 cells (flow cytometry), concentration dependence (mouse ATDC5 cells; biotin-labeled peptide 65, 130, 260 nmol): bound to the cell surface of mouse ATDC5 cells in a dose-dependent manner | inhibition of NHS-induced erythrocyte lysis, concentration dependence [1]: significantly inhibited in a dose-dependent manner | inhibition of NHS-induced erythrocyte lysis at 5.24 μmol [1]: greatest inhibition | inhibition of NHS-induced hemolysis compared to control peptide [1]: inhibited | binding to human C9 (human complement C9): human C9 could bind to both the original and modified peptides; also recorded: concentration-dependent binding | binding affinity to human C9 compared with original peptide (human complement C9; labeled human C9 1.5 μM, peptides 1.68 to 0 mM, Kd not given): binding affinity that was similar to that of the original peptide

VSMGKSLSSKVYVM [original peptide, tetradecapeptide derived from Trichinella spiralis paramyosin (Ts-pmy)]
binding to cell membrane of ATDC5 cells (flow cytometry) at 260 nmol (mouse ATDC5 cells; 260 nmol): did not bind to the cell membrane | inhibition of NHS-induced erythrocyte lysis, concentration dependence [1]: significantly inhibited in a dose-dependent manner | inhibition of NHS-induced erythrocyte lysis at 5.24 μmol [1]: greatest inhibition | inhibition of NHS-induced hemolysis compared to control peptide [1]: inhibited | binding to human C9 (human complement C9): human C9 could bind to both the original and modified peptides; also recorded: concentration-dependent binding
